Measured values: patent US20080108702A1, “Use of Acetyl-Leucine for Preparing a Drug for Treating Balance Disorders” (priority 2005, published 2008)

Assays:
[1] = test system: cats having undergone vestibular neurotomy; conditions: oral route, 28 mg per kg per day; cats after vestibular neurotomy; cited from earlier work
[2] = test system: guinea pig after unilateral labyrinthectomy; conditions: cited from earlier work
[3] = test system: patients with an indication for acoustic neurinoma excision or for vestibular neurotomy; assay: Balance evaluated by static posturography; format: in vivo, human
Experimental: Sixty patients with an indication for acoustic neurinoma excision or for vestibular neurotomy were included and randomized. Patients were treated for 60 days either with Tanganil® (six injections of two 500 mg vials by IV route, with an interval of 12 hours between injections, the first taking place one hour after the surgery, followed by an oral treatment at a dose of two 500 mg tablets, one in the morning and one in the evening) or with a placebo. Static posturography (not performed at D8 if the subject could not remain standing) was carried out in a standing position under four conditions (eyes open or closed, with or without foam carpeting). With foam carpeting and/or eyes closed, patients are placed under conditions which minimize the role of visual and proprioceptive information. Shifts in a subject's center of gravity during a given time period are recorded in a statokinesigram. This plot makes it possible to study oscillation amplitudes and surface areas. “Anteroposterior” oscillations can be separated from “right-left” oscillations.

[4] = test system: patients with an indication for acoustic neurinoma excision or for vestibular neurotomy; assay: Ability to maintain a standing position eight days following neurotomy (randomized, placebo-controlled); format: in vivo, human
Experimental: Sixty patients with an indication for acoustic neurinoma excision or for vestibular neurotomy were included and randomized. Patients were treated for 60 days either with Tanganil® (six injections of two 500 mg vials by IV route, with an interval of 12 hours between injections, the first taking place one hour after the surgery, followed by an oral treatment at a dose of two 500 mg tablets, one in the morning and one in the evening) or with a placebo.
Vestibular deficit was measured according to the methods described in Vertigo and the practitioner [Les vertiges et le praticien] by P. Tran Ba Huy and C. De Waele (Coll Pathologie Sciences Formation [in French], Ed. John Libbey Eurotext, Paris, 1996) and in Vertigo [Les vertiges] by G. Rancurel, O. Sterkers, E. Vitte, foreword by G. Freyss (Ed. Méd. Spécia. [in French], 1989).
Vestibular reflex was tested at day zero (D0) before neurotomy by caloric testing to objectivize vestibular hyporeflexia or areflexia. This test consists of successively irrigating with warm water then cold the right external auditory meatus then the left, causing in the semicircular canal an endolymph current which moves the ampullary crest. Caloric response is expressed by the appearance of a nystagmus that beats toward the side of the stimulated ear when warm water is applied and toward the opposite side when cold water is applied. The nystagmic response was recorded by video nystagmography and its frequency calculated, i.e., the number of nystagmic beats occurring between the 60th and 90th seconds following the initiation of stimulation. This number quantifies the vestibular response.
The difference in responses between one ear and the other expresses so-called hypovalence, i.e., the difference between the warm and cold responses on the left side and the warm and cold responses on the right side, divided by the total number of responses. In normal subjects, hypovalence is less than 15%. Hypovalence is the main sign of damage to the peripheral vestibular apparatus.
The principle criterion was “able to maintain a standing position at D8” (Yes/No)

vertigo symptomatology = conditions: clinical results reported by various authors; cited from earlier work
[5] = test system: patients with an indication for acoustic neurinoma excision or for vestibular neurotomy; assay: Symptoms (vertigo and vomiting) rated by patients on 10 cm visual analog scales (VAS); format: in vivo, human
Experimental: Sixty patients with an indication for acoustic neurinoma excision or for vestibular neurotomy were included and randomized. Patients were treated for 60 days either with Tanganil® (six injections of two 500 mg vials by IV route, with an interval of 12 hours between injections, the first taking place one hour after the surgery, followed by an oral treatment at a dose of two 500 mg tablets, one in the morning and one in the evening) or with a placebo. Subjective signs (vertigo and vomiting) were rated by patients on a 10 cm VAS from “absent” to “highly incapacitating”.

[6] = test system: mouse median vestibular neurons (MVN); assay: Electrophysiological study in current clamp mode on median vestibular neurons; format: cell-based; conditions: for effect on action potentials of depolarized neurons: depolarized neurons (approximately −35 mV), after several minutes of application; for Membrane potential: hyperpolarized neurons (approximately −70 mV); for Action potential frequency / Action potential height / Depolarization threshold / Resting potential: neurons spontaneously active at the resting potential
Experimental: An electrophysiological study was conducted on mouse median vestibular neurons (MVN) in which the membrane potential was artificially maintained at various resting values. In this study, the effects of the D and L enantiomers of acetyl-leucine (1 mM) were tested on the membrane properties of neurons in “current clamp” mode at various membrane potential values: normal membrane potential (approximately −45 mV), potential maintained at a hyperpolarized level of approximately −70 mV or potential maintained at a depolarized level of approximately −35 mV.

[7] = test system: surgical unilateral neurotomy model in the cat; assay: Surgical unilateral neurotomy model (preliminary tests); format: in vivo

CC(=O)N[C@@H](CC(C)C)C(=O)O (racemic) [Tanganil®, acetyl-leucine]
effect on recovery of locomotor equilibrium [1]: facilitates the recovery of locomotor equilibrium | effect on vestibular compensation ([2]; after unilateral labyrinthectomy in the guinea pig): accelerate vestibular compensation | effect on normal vestibular functioning ([2]; guinea pig): no effect | static posturography, difference vs placebo ([3]; D8, vestibular deficit greater than 75%, eyes open or closed and/or with or without foam): either no significant difference was observed between Tanganil® and the placebo or a significant difference was observed between the two groups in favor of the placebo | right/left posturography (postural oscillations) ([3]; D8, vestibular deficit less than or equal to 75%, with foam, eyes open, p=0.034 vs placebo): +7.9 mm | right/left posturography, difference vs placebo ([3]; D8, without foam, eyes open test): no significant difference | static posturography, difference vs placebo ([3]; vestibular deficit less than or equal to 75%, regardless of experimental conditions): significant difference between treatment groups in favor of Tanganil® | right/left posturography (postural oscillations) ([3]; vestibular deficit less than or equal to 75%, with foam, eyes closed, p=0.016 vs placebo): +5.4 mm | right/left posturography (postural oscillations) ([3]; vestibular deficit less than or equal to 75%, without foam, eyes closed, p=0.028 vs placebo): +2.8 mm | difference between the two treatment groups, able to maintain a standing position at D8 ([4]; 25 patients whose vestibular deficit was greater than 75%): no significant difference | difference between the two treatment groups, able to maintain a standing position at D8 ([4]; 31 patients whose vestibular deficit was less than or equal to 75%, χ^2=0.048): statistically significant difference | effect on compensation after neurotomy ([4]; patient population exhibiting no vestibular functioning before neurotomy): no effect | effect on compensation after neurotomy ([4]; patients exhibiting residual vestibular functioning): accelerates the compensation | difference between Tanganil and placebo, able to maintain a standing position at D8 ([4]; principle analysis of 49 patients): no statistically significant difference | patients able to maintain a standing position at D8 ([4]; principle analysis of 49 patients, 13 of 22 patients given Tanganil, IV then oral treatment): 59.1% | patients able to maintain a standing position at D8 ([4]; subgroup with vestibular deficit less than or equal to 75%, 12 of 16 patients): 75% | cases with improvement in vertigo symptomatology, including the disappearance of vertigo attacks (vertigo symptomatology): more than 95% | average change on the vertigo VAS ([5]; D8, vestibular deficit less than or equal to 75%): −23.5 mm | difference vs placebo on vertigo VAS ([5]; D8, vestibular deficit less than or equal to 75%, Wilcoxon test p=0.037): statistically significant difference | difference vs placebo on vomiting VAS ([5]; vestibular deficit greater than 75%): No significant difference | difference vs placebo on vertigo VAS ([5]; vestibular deficit greater than 75%, Wilcoxon test p=0.154): no significant difference | effect on vomiting VAS vs placebo ([5]; vestibular deficit less than or equal to 75%, significant difference between the two groups): reduction in vomiting severity

CC(=O)N[C@H](CC(C)C)C(=O)O [Acetyl-D-leucine]
effect on action potentials of depolarized neurons ([6]; 1 mM): action potentials stop due to blocking of the membrane potential at a more depolarized level | Membrane potential ([6]; before application (baseline)): −72.2 ± 5.2 mV | Membrane potential ([6]; during application, 1 mM): −67.2 ± 4.6 mV | effect on the membrane potential of hyperpolarized neurons ([6]; hyperpolarized neurons, 1 mM): significantly increases | Action potential frequency ([6]; before application (baseline)): 11.5 ± 6.8 Hz | Action potential height ([6]; before application (baseline)): 59.0 ± 7.7 mV | Depolarization threshold ([6]; before application (baseline)): −28.1 ± 4.5 mV | Resting potential ([6]; before application (baseline)): −42.7 ± 3.6 mV | Action potential frequency ([6]; during application, 1 mM): 8.9 ± 7.7 Hz | Action potential height ([6]; during application, 1 mM): 50.7 ± 17.3 mV | Depolarization threshold ([6]; during application, 1 mM): −27.0 ± 10.2 mV | Resting potential ([6]; during application, 1 mM): −42.0 ± 3.6 mV | activity in surgical unilateral neurotomy model [7]: active

CC(=O)N[C@@H](CC(C)C)C(=O)O [Acetyl-L-leucine]
effect on action potentials of depolarized neurons ([6]; 1 mM): not observed | Membrane potential ([6]; before application (baseline)): −70.0 ± 2.1 mV | Membrane potential ([6]; during application, 1 mM): −71.6 ± 3.2 mV | Action potential frequency ([6]; before application (baseline)): 14.1 ± 9.0 Hz | Action potential height ([6]; before application (baseline)): 59.0 ± 7.3 mV | Depolarization threshold ([6]; before application (baseline)): −30.4 ± 5.6 mV | Resting potential ([6]; before application (baseline)): −44.5 ± 2.1 mV | Action potential frequency ([6]; during application, 1 mM): 12.4 ± 7.8 Hz | Action potential height ([6]; during application, 1 mM): 49.8 ± 11.4 mV | Depolarization threshold ([6]; during application, 1 mM): −27.7 ± 8.4 mV | Resting potential ([6]; during application, 1 mM): −42.7 ± 3.7 mV | activity in surgical unilateral neurotomy model [7]: active
